Data from patent US11117869B2, “Compounds, compositions and methods for treatment of myopia” (Aerie Pharmaceuticals, Inc., priority 2019, dated 2021).

Legend:
[1] = Topical eye drop composition (Table 3): intraocular pressure; format: in vivo
[2] = Topical eye drop composition (Table 3): allergic symptoms, dry eye, hyperemia, irritation
myopia = test: Topical eye drop composition (Table 3): myopia progression or onset; details: drop 2 times per day, human subject

For `CN1C2CCC1CC(NC(=O)[C@H](CN)c1ccc(CO)cc1)C2` (stereo partly drawn) [Compound E20S, (S)-3-amino-2-(4-(hydroxymethyl)phenyl)-N-((1R,3-endo,5S)-8-methyl-8-azabicyclo[3.2.]octan-3-yl)propanamide ditosylate], the intraocular pressure [1] was “substantially decreases” and the allergic symptoms ([2]; in vivo) was “substantially decreases”.
For `CN1C2CCC1CC(OC(=O)C(C)(CO)c1ccccc1)C2` (centres unmarked) [Compound E22R], the “hyperemia, redness and ocular irritation” value ([2]; drop as needed) was “substantially decreases”.
In the case of `CN1C2CCC1CC(NC(=O)C(CO)c1ccccc1)C2` (centres unmarked) [Compound E23], the “rate of myopia progression” value (myopia) is reported as “substantially decreases”.
For `CN1C2CCC1CC(OC(=O)C(CO)c1cccc(Cl)c1)C2` (centres unmarked) [Compound E21], the intraocular pressure [1] was “substantially decreases”.
